According to patent US20050049295A1, “Process for the preparation of 5-(2-(4-(1,2-benzisothiazol-3-yl)-1piperazinyl) ethyl)-6-chloro-1, 3-dihydro-2h-indol-2-one hydrochloride (ziprasidone hydrochloride) and its intermediate” (DR. REDDY'S LABORATORIES LIMITED, priority 2003, published 2005):

Columns and labels:
Type in all cases: physicochemical
[1] = X-ray powder diffractogram of initial and two-month stability samples; conditions: Cu K alpha-1 radiation
Procedure: X-Ray diffractograms of active substance Ziprasidone HCl (Initial and after two month sample) were recorded on Bruker Axe, DS Advance Powder X-ray Diffractometer with Cu K alpha-1 Radiation source. The characteristic X-ray diffractogram of Ziprasidone hydrochloride was found similar.

[2] = Crystal size distribution / mean particle size D[4,3] (Malvern)
Procedure: Ziprasidone hydrochloride (3 Kg) in formic acid (4.5 L) was heated to 60-65° C. for clear dissolution. The solution was filtered to remove any solid particles and the filtrate was cooled to 50-55° C. Ziprasidone hydrochloride (7.5 gm) as seed compound was added to the cooled filtrate. After stirred for 2 hr at 50-55° C., the resulting solution was cooled slowly to 25-35° C. over 1 to 1.5 hour. Ethyl acetate (13.5 L) was added slowly at 25-35° C. over 2 hrs. The resulting mass was stirred for 30-45 min at 25-35° C. The compound was filtered under nitrogen atmosphere. The filtered wet compound was added to acetic acid (10 L) at 25-35° C. under nitrogen atmosphere, and the resulting mixture was stirred for 30-45 min at 25-35° C. The compound was filtered under nitrogen atmosphere, washed with ethyl acetate (10 L), and then dried the compound at 60° C. under reduced pressure for 3-4 hrs and then at 110-120° C. to get the Ziprasidone hydrochloride (2.2 Kg). The product purity by HPLC was analyzed as 99.8%. The crystal size distribution as measured by Malvern was: D10<18.75 micron, D50=114.82 micron, […] and the mean particle size or D[4,3]=123.8 micron.

[3] = Stability study with normal packing (without inert atmosphere), 40° C. and 75% relative humidity; conditions: 40° C./75% RH
Procedure: Stability study with normal packing (without inert atmosphere): Initial and up to two-month stability profile with normal packing was carried out at 40° C. and 75% relative humidity conditions as follow: […]

[4] = Stability study with improved packing (inert atmosphere), 25° C. and 60% relative humidity; conditions: 25° C./60% RH
Text: (§1) Ziprasidone hydrochloride prepared by the present invention can be packed with a specific process to prevent from hydrating or to improve stability during the storage or transporting of ziprasidone hydrochloride products. This can be achieved by storing the active substance in inert atmosphere, which is technologically and economically simple. The active substance Ziprasidone HCl is stored in polythene bag or containers. The inert atmosphere may be made by nitrogen or argon or mixture thereof. Silica gel or desiccant in air permeable bag may be used optionally along with inert gas in the polythene bag or container.
(§2) Stability study with improved packing (inert atmosphere):
The stability studies were also carried out at 25° C. and 60% relative humidity condition.

[5] = Stability study with improved packing (inert atmosphere), 40° C. and 75% relative humidity; conditions: 40° C./75% RH
Text: as §1, §2
Initial and up to two-month stability profile for the hygroscopic active substance Ziprasidone HCl is shown below:
The stability studies were carried out at 40° C. and 75% relative humidity condition.

[6] = Example 15, crystal size distribution by Malvern

- X-ray diffractogram, initial versus after two month sample [1]: similar
- mean particle size or D[4,3] ([2]; Example 12: reactive crystallization from base in formic acid with HCl in ethyl acetate): 94.1 micron
- mean particle size or D[4,3] ([2]; Example 13: formic acid solvent, ethyl acetate anti-solvent, 30° C.): 101.1 micron
- mean particle size or D[4,3] ([2]; Example 14: seeded cooling crystallization from formic acid): 264.5 micron
- D10 [2, 6]: < 18.75 micron
- D50 [2, 6]: 114.82 micron
- D60 [2, 6]: < 236.5 micron
- mean particle size or D[4,3] ([2]; Example 15: seeded, formic acid / ethyl acetate anti-solvent, acetic acid slurry): 123.8 micron
- mean particle size or D[4,3] ([2]; Example 16: reverse addition of formic acid solution into hot seeded ethyl acetate, 1.5 Kg): 156.2 micron
- D[4,3] ([2]; Example 17: reverse addition of formic acid solution into hot seeded ethyl acetate, 20 Kg): 132.2 micron
- Moisture content ([3]; Initial): 0.25% w/w
- Moisture content ([3]; One month): 3.45% w/w
- Moisture content ([3]; Two month): 4.83% w/w
- Assay ([4]; Initial): 99.4% w/w
- Moisture content ([4]; Initial): 0.54% w/w
- Total Impurity ([4]; Initial): 0.19% w/w
- Assay ([4]; One month): 99.2% w/w
- Moisture content ([4]; One month): 0.38% w/w
- Total Impurity ([4]; One month): 0.18% w/w
- Assay ([4]; Two month): 99.3% w/w
- Moisture content ([4]; Two month): 0.48% w/w
- Total Impurity ([4]; Two month): 0.21% w/w
- Assay ([5]; Initial): 99.4% w/w
- Moisture content ([5]; Initial): 0.54% w/w
- Total Impurity ([5]; Initial): 0.19% w/w
- Assay ([5]; One month): 99.4% w/w
- Moisture content ([5]; One month): 0.41% w/w
- Total Impurity ([5]; One month): 0.19% w/w
- Assay ([5]; Two month): 99.7% w/w
- Moisture content ([5]; Two month): 0.54% w/w
- Total Impurity ([5]; Two month): 0.20% w/w
Structure (SMILES): Cl.O=C1Cc2cc(CCN3CCN(c4nsc5ccccc45)CC3)c(Cl)cc2N1 [Ziprasidone hydrochloride, 5-(2-(4-(1,2-benzisothiazol-3-yl)-1-piperazinyl)ethyl)-6-chloro-1,3-dihydro-2H-indol-2-one hydrochloride]
